Patent US6451971B1, “Physiologically active peptides” (Hisamitsu Pharmaceutical Co., Ltd., priority 1999, dated 2002)
Entries after “also recorded” stand apart in the source; their conditions may differ. Where no end group is shown, it is not given here.

What was measured:
[1] = tested on: human melanoma A375SM cells; experiment: Cell adhesion (spreading) inhibitory activity on anchorage-dependent A375SM cells; type: cell-based; settings: fibronectin- or vitronectin-coated plates, biotinylated peptide 50 to 200 μg/ml, 60 min
Experimental: (§1) The human melanoma A375SM cells and human fibrosarcoma HT1080 (both available from ATCC), which are anchorage-dependent cells, were used in the evaluation. Cell adhesion inhibitory activity was evaluated according to the method of Fukai et al. as described in Biochem. Biophys. Res. Commun., 220, 394-398, 1996. The number of spread cells was counted as an index of the cell adhesion inhibitory activity.
(§2) A375SM cells or HT1080 cells were prepared to 2×10^5/ml in Dulbecco's Modified Eagle Medium (DMEM: GIBCO BRL) containing 0.1% Ovalbumin (Wako Pure Chemical Industries, Ltd.). This cell suspension (100 μl) was added to 96-well plates that had been coated with fibronectin or vitronectin (VN), which are one kind of extracellular matrix, and incubated at 37° C. under 5% CO2 for 60 min. Concurrently with addition of the cell suspension, the biotinylated peptide as synthesized in Example 1 was added to the plates to give a final concentration of from 50 to 200 μg/ml. […] FN and VN coatings were carried out by adding to each well, FN or VN phosphate buffered saline (100 μl) that had been prepared to 0.5 μg/ml, by conducting incubation at 37° C. under 5% CO2 for 60 min and then by washing the well with phosphate buffered saline 3 times. […]

[2] = tested on: Ramos cell line derived from human Burkitt's lymphoma; experiment: Cell adhesion inhibitory activity on Mn2+-treated anchorage-independent Ramos cells on fibronectin-coated plates; type: cell-based; settings: Ramos cells in 0.1 mM Mn2+, biotinylated peptide 50 to 200 μg/ml, 60 min, adherent cells counted
Text: (§3) (Danen et al., J. Biol. Chem., 270, 37, 21612, 1995; Mould et al., J. Biol. Chem., 270, 44, 26270, 1995.) This allows the cells to acquire adhesiveness to the extracellular matrices mediated by integrins. Such experimental induction of adhesion can be utilized as models for cell adhesion in the processes of metastatis of cancer cells and infiltration of inflammatory cells into tissues.
(§4) The K562 cell line derived from human chronic myelocytic leukemia, U937 cell line derived from human hystiocytic lymphoma and Ramos cell line derived from human Burkitt's lymphoma (all available from American Type Tissue Culture Collection-ATCC), which are one kind of anchorage-independent cells, were then treated with Mn^2+ to prepare a system, where the cell adhesion inhibitory activity of the peptides was evaluated.
(§5) Ninety six well plates were coated with fibronectin, which is one kind of extracellular matrix: fibronectin (FN) was prepared by the method of Fukai et al., J. Biol. Chem., 266, 8807, 1991. After cells were suspended to a cell density of 2×10^5/ml in a HEPES buffered physiological saline containing 0.1 mM Mn^2+, the cells (100 μl) were added to the plate and incubated at 37° C. under 5% CO2 for 60 min. […] As a negative control, the group to which only biotin (unbound with the peptide) had been added was also evaluated. […]

[3] = tested on: human fibrosarcoma HT1080; experiment: Cell adhesion (spreading) inhibitory activity on anchorage-dependent HT1080 cells; type: cell-based; settings: fibronectin- or vitronectin-coated plates, biotinylated peptide 50 to 200 μg/ml, 60 min
Experimental: as §1, §2

[4] = tested on: U937 cell line derived from human hystiocytic lymphoma; experiment: Cell adhesion inhibitory activity on Mn2+-treated anchorage-independent U937 cells on fibronectin-coated plates; type: cell-based; settings: U937 cells in 0.1 mM Mn2+, biotinylated peptide 50 to 200 μg/ml, 60 min, adherent cells counted
Text: as §3, §4, §5

[5] = tested on: K562 cell line derived from human chronic myelocytic leukemia; experiment: Cell adhesion inhibitory activity on Mn2+-treated anchorage-independent K562 cells on fibronectin-coated plates; type: cell-based; settings: for cell adhesion inhibitory activity (alanine scanning): K562 cells, biotinylated peptides of Table 1, conducted similarly to Example 2, FIG. 6
Text: as §3, §4
Ninety six well plates were coated with fibronectin, which is one kind of extracellular matrix: fibronectin (FN) was prepared by the method of Fukai et al., J. Biol. Chem., 266, 8807, 1991. After cells were suspended to a cell density of 2×10^5/ml in a HEPES buffered physiological saline containing 0.1 mM Mn^2+, the cells (100 μl) were added to the plate and incubated at 37° C. under 5% CO2 for 60 min. Concurrently with addition of the cell suspension, the biotinylated peptide as synthesized in Example 1 (the amino acid sequence of the peptide portion is set forth in SEQ ID NO: 2) was added to the plate to give a final concentration of from 50 to 200 μg/ml. […] As a negative control, the group to which only biotin (unbound with the peptide) had been added was also evaluated.
FN coating was carried out by adding to each well, FN phosphate buffer (100 μl) that had been prepared to 10 μg/ml, by conducting incubation at 37° C. under 5% CO2 for 60 min and then by washing the well with phosphate buffer 3 times. After cells in each well were fixed with 5% formaldehyde (Wako Pure Chemical Industries, Ltd.), unbound cells were removed and five areas were randomly selected in each well to count the cells under a microscope.
The alanine scanning method is a technique that is used to identify amino acid sequence regions essential to physiological activities of proteins and peptides. (Puffer et al., J. Virol., 71, 6541, 1997; Wu and Hersh, J. Biol. Chem., 270, 49, 29111, 1995.) This method was then employed to analyze the present peptides. The peptides listed in Table 1, all of which were biotinylated (Example 1), were used in the experiments. For evaluation, the K562 cells derived from human chronic myelocytic leukemia, which was one kind of anchorage-independent cell, were used.
Evaluation of the cell adhesion inhibitory activity was conducted similarly to Example 2.

[6] = Saiki et al., Jpn. J. Cancer Res., 84, 558, 1993; cited from earlier work
[7] = tested on: melanoma cells; settings: Humphries, Science 233, 467, 1986; cited from earlier work
[8] = Saiki et al., Jpn. J. Cancer Res., 84, 558, 1993; cited from earlier work; remark: listed apart in the source

## Gly Leu Lys Pro Gly Val Asp Tyr Thr Ile Thr Val Tyr Ala Val (GLKPGVDYTITVYAV; also: biotinylated (place not given here)) [SEQ ID NO: 2]
[1]
  cell adhesion inhibitory action (number of spread cells): exhibits no such action at all
[2]
  cell adhesion inhibitory effect: nearly equal to the activity of the known cell adhesion inhibitory peptide
[3]
  cell adhesion inhibitory action (number of spread cells): exhibits no such action at all
[4]
  cell adhesion inhibitory effect: nearly equal to the activity of the known cell adhesion inhibitory peptide
[5]; K562 cells in 0.1 mM Mn2+, fibronectin-coated plates, biotinylated peptide 50 to 200 μg/ml, 60 min, adherent cells counted
  cell adhesion inhibitory effect: nearly equal to the activity of a known cell adhesion inhibitory peptide
[5]
  cell adhesion inhibitory activity (alanine scanning): cell adhesion inhibitory activity was noted

## Gly Leu Lys Pro Gly Val Asp Tyr Thr Ile Thr Val Ala Ala Val (GLKPGVDYTITVAAV; also: biotinylated (place not given here)) [SEQ ID NO: 8]
[5]
  cell adhesion inhibitory activity (alanine scanning): equal to or greater than the cell adhesion inhibitory activity of the peptide set forth in SEQ ID NO: 2

## SEQ ID NO: 10: known peptide possessing cell adhesion inhibitory activity (Japanese Unexamined Patent Application Hei 10-147600); sequence not printed in the text (TEATIYGLEPGTEYTIYVIAL) [reference compound]
[1]
  cell adhesion inhibitory action (number of spread cells): had a cell adhesion inhibitory action; also recorded: possesses a cell spreading inhibitory action
[3]
  cell adhesion inhibitory action (number of spread cells): had a cell adhesion inhibitory action; also recorded: possesses a cell spreading inhibitory action

## Gly Leu Lys Pro Gly Val Asp Ala Thr Ile Thr Val Tyr Ala Val (GLKPGVDATITVYAV; also: biotinylated (place not given here)) [SEQ ID NO: 3]
[5]
  cell adhesion inhibitory activity (alanine scanning): equal to or greater than the cell adhesion inhibitory activity of the peptide set forth in SEQ ID NO: 2; also recorded: much greater cell adhesion inhibitory activity compared to the peptide set forth in SEQ ID NO: 2
[5]; listed as SEQ NO: 3
  cell adhesion inhibitory activity (alanine scanning): stronger cell adhesion inhibitory activity than did SEQ NO: 2

## Gly Leu Lys Pro Gly Val Asp Tyr Thr Ile Thr Ala Tyr Ala Val (GLKPGVDYTITAYAV; also: biotinylated (place not given here)) [SEQ ID NO: 7]
[5]
  cell adhesion inhibitory activity (alanine scanning): equal to or greater than the cell adhesion inhibitory activity of the peptide set forth in SEQ ID NO: 2

## Gly Leu Lys Pro Gly Val Asp Tyr Thr Ile Ala Val Tyr Ala Val (GLKPGVDYTIAVYAV; also: biotinylated (place not given here)) [SEQ ID NO: 6]
[5]
  cell adhesion inhibitory activity (alanine scanning): cell adhesion inhibitory activity was lost

## Gly Leu Lys Pro Gly Val Asp Tyr Thr Ala Thr Val Tyr Ala Val (GLKPGVDYTATVYAV; also: biotinylated (place not given here)) [SEQ ID NO: 5]
[5]
  cell adhesion inhibitory activity (alanine scanning): cell adhesion inhibitory activity was lost

## Gly Leu Lys Pro Gly Val Asp Tyr Thr Ile Thr Val Tyr Ala Ala (GLKPGVDYTITVYAA; also: biotinylated (place not given here)) [SEQ ID NO: 9]
[5]
  cell adhesion inhibitory activity (alanine scanning): equal to or greater than the cell adhesion inhibitory activity of the peptide set forth in SEQ ID NO: 2

## GRGDS [GRGDS peptide]
[6]
  decomposition by enzyme: liable to be decomposed by enzyme
[7]
  inhibition of experimental metastasis of melanoma cells to the lung: inhibits the experimental metastasis of melanoma cells to the lung
[8]
  rate of clearance from the circulation following administration: fast

## Gly Leu Lys Pro Gly Val Asp Tyr Ala Ile Thr Val Tyr Ala Val (GLKPGVDYAITVYAV; also: biotinylated (place not given here)) [SEQ ID NO: 4]
[5]
  cell adhesion inhibitory activity (alanine scanning): cell adhesion inhibitory activity was lost
